This is an account of results in publication PMC4631608 (Journal of structural and functional genomics, 2015).

In the experiment the target is M. tuberculosis Rv1496 (Mycobacterium tuberculosis, UniProt P9WPZ1).
Chain of M. tuberculosis Rv1496 (P9WPZ1 3-336): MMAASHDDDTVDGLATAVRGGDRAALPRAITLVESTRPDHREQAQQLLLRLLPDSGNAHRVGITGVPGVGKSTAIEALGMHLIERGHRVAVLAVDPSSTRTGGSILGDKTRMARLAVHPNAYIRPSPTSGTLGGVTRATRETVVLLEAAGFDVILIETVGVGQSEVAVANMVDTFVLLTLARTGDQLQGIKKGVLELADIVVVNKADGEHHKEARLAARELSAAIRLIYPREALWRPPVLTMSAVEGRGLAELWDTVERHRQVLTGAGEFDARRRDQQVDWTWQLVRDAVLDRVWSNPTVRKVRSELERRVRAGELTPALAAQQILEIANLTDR

`Nc1nc2c(ncn2[C@@H]2O[C@H](COP(=O)(O)OP(=O)(O)O)[C@@H](O)[C@H]2O)c(=O)[nH]1` [GDP]: the “X-ray co-crystal structure, 2.45 Å” value is “Rv1496 binds GDP via hydrogen bonds, one salt bridge, and van der Waals interactions”.
